≈ marks a conversion by molar mass, not a printed value.
Tests used:
Pseudomonas aeruginosa [1] = assay: Antibacterial activity against Pseudomonas aeruginosa assessed as reduction in bacterial growth by broth microdilution method; assay type: functional
Streptococcus pyogenes [2] = assay: Antibacterial activity against Streptococcus pyogenes assessed as reduction in microbial growth by CLSI based broth microdilution method; assay type: functional
Staphylococcus aureus [3] = assay: Antibacterial activity against Staphylococcus aureus assessed as reduction in microbial growth by CLSI based broth microdilution method; assay type: functional
Escherichia coli [4] = assay: Antibacterial activity against Escherichia coli assessed as bacterial growth inhibition incubated for 18 hrs by CLSI protocol based Mueller-Hinton broth assay; assay type: functional
Sarcina = assay: Antibacterial activity against Sarcina assessed as zone of inhibition at 20 mg/ml; assay type: functional; settings: read-out: IZ
Escherichia coli [5] = assay: Antibacterial activity against Escherichia coli assessed as zone of inhibition at 20 mg/ml; assay type: functional; settings: read-out: IZ
Serratia marcescens = assay: Antibacterial activity against Serratia marcescens assessed as zone of inhibition at 20 microg/ml; assay type: functional; settings: read-out: IZ
Bacillus subtilis [6] = assay: Antibacterial activity against Bacillus subtilis assessed as zone of inhibition at 20 mg/ml; assay type: functional; settings: read-out: IZ
Staphylococcus aureus [7] = assay: Antibacterial activity against Staphylococcus aureus assessed as zone of inhibition at 20 mg/ml; assay type: functional; settings: read-out: IZ
Staphylococcus aureus [8] = assay: Antibacterial activity against Staphylococcus aureus assessed as bacterial growth inhibition by measuring zone of inhibition at 50 ug/ml by agar cup diffusion assay; assay type: functional; settings: read-out: IZ
Salmonella typhimurium = assay: Antibacterial activity against Salmonella typhimurium DT104 assessed as bacterial growth inhibition by measuring zone of inhibition at 50 ug/ml by agar cup diffusion assay; assay type: functional, Salmonella enterica subsp. enterica serovar Typhimurium; settings: Salmonella enterica, read-out: IZ
Escherichia coli [9] = assay: Antibacterial activity against Escherichia coli assessed as bacterial growth inhibition by measuring zone of inhibition at 50 ug/ml by agar cup diffusion assay; assay type: functional; settings: read-out: IZ
Bacillus subtilis [10] = assay: Antibacterial activity against Bacillus subtilis assessed as bacterial growth inhibition by measuring zone of inhibition at 50 ug/ml by agar cup diffusion assay; assay type: functional; settings: read-out: IZ
Bacillus subtilis [11] = assay: Antibacterial activity against Bacillus subtilis ATCC 465 assessed as reduction in bacterial growth measured after 24 hrs by Mueller-Hinton broth assay; assay type: functional
Staphylococcus aureus [12] = assay: microbe, parasite or virus in culture; settings: ATCC 25923, 24 h
Description: Antibacterial activity against Staphylococcus aureus ATCC 25923 assessed as reduction in bacterial growth measured after 24 hrs by Mueller-Hinton broth assay

Staphylococcus aureus [13] = assay: Antibacterial activity against Staphylococcus aureus assessed as inhibition of microbial growth by broth micro-dilution method; assay type: functional
Streptococcus pyogenes [14] = assay: Antibacterial activity against Streptococcus pyogenes assessed as inhibition of microbial growth by broth micro-dilution method; assay type: functional
Pseudomonas aeruginosa [15] = assay: Antibacterial activity against Pseudomonas aeruginosa assessed as inhibition of microbial growth by broth micro-dilution method; assay type: functional
Escherichia coli [16] = assay: Antibacterial activity against Escherichia coli assessed as inhibition of microbial growth by broth micro-dilution method; assay type: functional

SMILES: O=S(=O)(Nc1ncccn1)c1ccc(Nc2nc(Nc3ccc(Cl)cc3)nc(N3CCCCC3)n2)cc1
- MIC (Pseudomonas aeruginosa [1]): 100 mg/L (≈ 186 µM)
- MIC (Streptococcus pyogenes [2]): 100 mg/L
- MIC (Staphylococcus aureus [3]): 200 mg/L
- MIC (Escherichia coli [4]): 25 mg/L (≈ 46.5 µM)

SMILES: Cc1cnc(NS(=O)(=O)c2ccc(/N=N/c3c(=O)[nH]n4c(NN)c(C#N)c(N)nc34)cc2)nc1
- zone of inhibition at 20000 µg/mL (Sarcina): 12 mm
- zone of inhibition at 20000 µg/mL (Escherichia coli [5]): 12 mm
- zone of inhibition at 20 µg/mL (Serratia marcescens): 15 mm
- zone of inhibition at 20000 µg/mL (Bacillus subtilis [6]): 9 mm
- zone of inhibition at 20000 µg/mL (Staphylococcus aureus [7]): 9 mm

SMILES: CSc1c(C#N)c(N)nc2c(/N=N/c3ccc(S(=O)(=O)Nc4ncccn4)cc3)c(=O)[nH]n12
- zone of inhibition at 20000 µg/mL (Sarcina): 12 mm
- zone of inhibition at 20000 µg/mL (Escherichia coli [5]): 15 mm
- zone of inhibition at 20 µg/mL (Serratia marcescens): 15 mm
- zone of inhibition at 20000 µg/mL (Bacillus subtilis [6]): 9 mm
- zone of inhibition at 20000 µg/mL (Staphylococcus aureus [7]): 9 mm

SMILES: O=C(CSc1nnc(-c2cccnc2N2CCOCC2)o1)Nc1nc(-c2ccc(Cl)cc2Cl)cc(-c2cc(F)c(Cl)cc2Cl)n1
- zone of inhibition at 50 µg/mL (Staphylococcus aureus [8]): 13 mm
- zone of inhibition at 50 µg/mL (Salmonella typhimurium): 12 mm
- zone of inhibition at 50 µg/mL (Escherichia coli [9]): 12 mm
- zone of inhibition at 50 µg/mL (Bacillus subtilis [10]): 9 mm

SMILES: CN[C@@H]1[C@H](O[C@H]2[C@H](O[C@H]3[C@H](O)[C@@H](O)[C@H](N=C(N)N)[C@@H](O)[C@@H]3N=C(N)N)O[C@@H](C)[C@]2(O)C=O)O[C@@H](CO)[C@H](O)[C@H]1O [STREPTOMYCIN]
- zone of inhibition at 20000 µg/mL (Sarcina): 18 mm
- zone of inhibition at 20000 µg/mL (Escherichia coli [5]): 18 mm
- zone of inhibition at 20 µg/mL (Serratia marcescens): 18 mm
- zone of inhibition at 20000 µg/mL (Bacillus subtilis [6]): 18 mm
- zone of inhibition at 20000 µg/mL (Staphylococcus aureus [7]): 18 mm

SMILES: N#Cc1nc2[nH]c(=O)[nH]c(=O)c2c(-c2ccccc2)c1N
- MIC (Bacillus subtilis [11]): 2 mg/L (≈ 7.16 µM)
- MIC (Staphylococcus aureus [12]): 8 mg/L (≈ 28.6 µM)

SMILES: COc1ccc(-c2cc(-c3ccc(Oc4ccccc4)cc3)nc(SCC(=O)Nc3nc4ccc(S(=O)(=O)O)cc4s3)n2)cc1
- MIC (Staphylococcus aureus [13]): 100 mg/L
- MIC (Streptococcus pyogenes [14]): 100 mg/L
- MIC (Pseudomonas aeruginosa [15]): 50 mg/L
- MIC (Escherichia coli [16]): 62.5 mg/L

SMILES: COc1ccc(-c2cc(-c3ccc(Oc4ccccc4)cc3)nc(SCC(=O)Nc3nc4ccc(OC)cc4s3)n2)cc1
- MIC (Staphylococcus aureus [13]): 50 mg/L
- MIC (Streptococcus pyogenes [14]): 50 mg/L
- MIC (Pseudomonas aeruginosa [15]): 25 mg/L
- MIC (Escherichia coli [16]): 25 mg/L

SMILES: O=C(CSc1nnc(-c2cccnc2N2CCOCC2)o1)Nc1nc(-c2ccc(Cl)cc2)cc(-c2cc(F)c(Cl)cc2Cl)n1
- zone of inhibition at 50 µg/mL (Staphylococcus aureus [8]): 13 mm
- zone of inhibition at 50 µg/mL (Salmonella typhimurium): 9 mm
- zone of inhibition at 50 µg/mL (Escherichia coli [9]): 10 mm
- zone of inhibition at 50 µg/mL (Bacillus subtilis [10]): 10 mm

SMILES: N#Cc1nc2[nH]c(=O)[nH]c(=O)c2c(-c2c(Cl)cccc2Cl)c1N
- MIC (Bacillus subtilis [11]): 4 mg/L (≈ 11.5 µM)
- MIC (Staphylococcus aureus [12]): 64 mg/L (≈ 184 µM)

SMILES: Cc1ccc(Nc2c(C#N)c(N)nc3c(/N=N/c4ccc(S(=O)(=O)Nc5ncc(C)cn5)cc4)c(=O)[nH]n23)cc1
- zone of inhibition at 20000 µg/mL (Sarcina): 15 mm
- zone of inhibition at 20000 µg/mL (Escherichia coli [5]): 12 mm
- zone of inhibition at 20 µg/mL (Serratia marcescens): 15 mm
- zone of inhibition at 20000 µg/mL (Bacillus subtilis [6]): 9 mm
- zone of inhibition at 20000 µg/mL (Staphylococcus aureus [7]): 12 mm

SMILES: O=[N+]([O-])c1ccc(Nc2nc(Nc3ccc(S(=O)(=O)Nc4ncccn4)cc3)nc(N3CCCCC3)n2)cc1
- MIC (Pseudomonas aeruginosa [1]): 50 mg/L (≈ 91.1 µM)
- MIC (Streptococcus pyogenes [2]): 100 mg/L
- MIC (Staphylococcus aureus [3]): 100 mg/L
- MIC (Escherichia coli [4]): 25 mg/L (≈ 45.6 µM)

SMILES: CSc1c(C#N)c(N)nc2c(/N=N/c3ccc(S(=O)(=O)Nc4ncc(C)cn4)cc3)c(=O)[nH]n12
- zone of inhibition at 20000 µg/mL (Sarcina): 12 mm
- zone of inhibition at 20000 µg/mL (Escherichia coli [5]): 12 mm
- zone of inhibition at 20 µg/mL (Serratia marcescens): 15 mm
- zone of inhibition at 20000 µg/mL (Bacillus subtilis [6]): 9 mm
- zone of inhibition at 20000 µg/mL (Staphylococcus aureus [7]): 9 mm

SMILES: Cc1ccc(-c2cc(-c3cc(F)c(Cl)cc3Cl)nc(NC(=O)CSc3nnc(-c4cccnc4N4CCOCC4)o3)n2)cc1
- zone of inhibition at 50 µg/mL (Staphylococcus aureus [8]): 11 mm
- zone of inhibition at 50 µg/mL (Salmonella typhimurium): 10 mm
- zone of inhibition at 50 µg/mL (Escherichia coli [9]): 12 mm
- zone of inhibition at 50 µg/mL (Bacillus subtilis [10]): 8 mm

SMILES: CCOC(=O)c1ccc(Nc2nc(Nc3ccc(S(=O)(=O)Nc4ncccn4)cc3)nc(N3CCCCC3)n2)cc1
- MIC (Pseudomonas aeruginosa [1]): 25 mg/L (≈ 43.4 µM)
- MIC (Streptococcus pyogenes [2]): 100 mg/L
- MIC (Staphylococcus aureus [3]): 100 mg/L
- MIC (Escherichia coli [4]): 25 mg/L (≈ 43.4 µM)

SMILES: COc1ccc(Nc2c(C#N)c(N)nc3c(/N=N/c4ccc(S(=O)(=O)Nc5ncccn5)cc4)c(=O)[nH]n23)cc1
- zone of inhibition at 20000 µg/mL (Sarcina): 15 mm
- zone of inhibition at 20000 µg/mL (Escherichia coli [5]): 15 mm
- zone of inhibition at 20 µg/mL (Serratia marcescens): 15 mm
- zone of inhibition at 20000 µg/mL (Bacillus subtilis [6]): 9 mm
- zone of inhibition at 20000 µg/mL (Staphylococcus aureus [7]): 12 mm

SMILES: CCn1cc(C(=O)O)c(=O)c2cc(F)c(N3CCNCC3)cc21 [NORFLOXACIN]
- MIC (Staphylococcus aureus [13]): 10 mg/L
- MIC (Streptococcus pyogenes [14]): 10 mg/L
- MIC (Pseudomonas aeruginosa [15]): 10 mg/L
- MIC (Escherichia coli [16]): 10 mg/L

From ChEMBL document CHEMBL5532639, “Heterocyclic pyrimidine derivatives as promising antibacterial agents” (Eur J Med Chem, 2023)
